Measurements from patent US20100184094A1, “USE OF MDCK CELLS IN THE EVALUATION OF CHOLESTEROL MODULATORS” (priority 2007, published 2010).
Read-outs that look alike come from different tables or passages of the source.

Target: T1, human NPC1L1 (Homo sapiens, UniProt Q9UHC9)
T1 construct: expressed in transfected cells
T1 sequence (Q9UHC9 22-1359): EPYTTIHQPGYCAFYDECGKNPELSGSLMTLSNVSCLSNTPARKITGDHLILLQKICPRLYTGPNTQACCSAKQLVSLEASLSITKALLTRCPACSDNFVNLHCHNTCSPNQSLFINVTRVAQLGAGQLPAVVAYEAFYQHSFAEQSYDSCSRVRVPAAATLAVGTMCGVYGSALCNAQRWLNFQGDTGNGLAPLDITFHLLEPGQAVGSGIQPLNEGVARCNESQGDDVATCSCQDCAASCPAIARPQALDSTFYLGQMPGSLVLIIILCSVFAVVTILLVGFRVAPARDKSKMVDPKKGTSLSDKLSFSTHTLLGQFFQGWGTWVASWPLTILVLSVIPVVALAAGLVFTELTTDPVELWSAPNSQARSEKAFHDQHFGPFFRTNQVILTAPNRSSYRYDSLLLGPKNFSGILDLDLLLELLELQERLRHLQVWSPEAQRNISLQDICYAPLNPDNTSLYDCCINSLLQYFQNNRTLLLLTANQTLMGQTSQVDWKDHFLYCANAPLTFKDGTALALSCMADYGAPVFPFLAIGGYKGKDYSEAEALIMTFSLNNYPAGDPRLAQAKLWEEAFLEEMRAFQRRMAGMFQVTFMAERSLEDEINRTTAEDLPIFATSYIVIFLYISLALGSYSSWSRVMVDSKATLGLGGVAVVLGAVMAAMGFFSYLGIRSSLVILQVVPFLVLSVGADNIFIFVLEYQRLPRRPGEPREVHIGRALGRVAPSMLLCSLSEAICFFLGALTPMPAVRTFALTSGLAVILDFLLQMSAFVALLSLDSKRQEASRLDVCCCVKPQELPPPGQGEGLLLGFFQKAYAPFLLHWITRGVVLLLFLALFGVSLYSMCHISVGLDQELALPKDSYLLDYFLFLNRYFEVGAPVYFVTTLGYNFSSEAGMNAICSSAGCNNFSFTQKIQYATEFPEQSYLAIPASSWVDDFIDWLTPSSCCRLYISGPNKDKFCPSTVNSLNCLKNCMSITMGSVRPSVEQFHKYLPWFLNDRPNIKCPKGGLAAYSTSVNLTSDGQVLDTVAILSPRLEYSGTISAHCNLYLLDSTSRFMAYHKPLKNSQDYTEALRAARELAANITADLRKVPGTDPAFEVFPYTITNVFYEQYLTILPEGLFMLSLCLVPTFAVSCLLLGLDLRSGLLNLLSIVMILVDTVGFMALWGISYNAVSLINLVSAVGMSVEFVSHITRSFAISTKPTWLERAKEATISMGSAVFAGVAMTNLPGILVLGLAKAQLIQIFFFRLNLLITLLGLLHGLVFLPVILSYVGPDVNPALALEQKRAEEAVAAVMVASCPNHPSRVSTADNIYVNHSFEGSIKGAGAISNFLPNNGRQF
Experiment: [3H]cholesterol flux into hNPC1L1/MDCKII-Flp cells
Assay type: cell-based
Details: for IC50: hNPC1L1/MDCKII-Flp
Experimental: Flux assays were performed essentially as described by Yu et al., 2006 J Biol. Chem. 281:6616-6624. Briefly, cell growth medium was completely aspirated and replaced with 200 μl of 5% LPDS containing the appropriate concentration of compound and incubated at 37° C./3 h in a 5% CO2 incubator. Media was subsequently aspirated from cells and cells were incubated in 200 μl of 0-5.5% βmCD dissolved and filtered through a […] filter at 37° C./45 minutes in a 5% CO2 incubator. Media was dumped from cells that were then washed twice with 125 μl of 5% LPDS before media was aspirated and [3H]cholesterol complexed to BSA in 5% LPDS was added; see Yu et al., 2006 J. Biol. Chem. 281:6616-6624. After 45 minute incubation, cells were washed twice with DMEM, thoroughly aspirated and then 1% SDS was added prior to extraction for scintillation counting.
To validate MDCKII cells as an appropriate surrogate system for monitoring NPC1L1-dependent processes, we evaluated their ability to perform EZE-sensitive cholesterol flux using a similar protocol to that recently reported. This assay makes use of the ability of βmCD to deplete membrane-bound cholesterol. Subsequent exposure of cells to [^3H] cholesterol provides a time-dependent flux of this substrate into the cells. […] In an attempt to improve the assay window, a stable MDCKII-Flp cell line over-expressing human NPC1L1, hNPC1L1/MDCKII-Flp, was generated.
To further characterize the [^3H] cholesterol influx process into MDCK cells, the potency of EZE-like compound PS for inhibiting [^3H] cholesterol uptake was determined.

[1] = FIG. 7D, read-out: IC50 block of [3H]cholesterol flux

Row | SMILES | IC50 [1] [nM] | blockade of [3H]cholesterol influx (10 μM PS, 5.5% βmCD treatment) | IC50 (FIG. 7C, read-out: IC50 inhibition of [3H]cholesterol uptake) [nM]
1 | O=C1[C@H](CC[C@H](O)c2ccc(F)cc2)[C@@H](c2ccc(O)cc2)N1c1ccc(F)cc1 [EZE, Ezetimibe] | > 1000 | – | –
2 | COC(=O)[C@H]1O[C@@H](Oc2ccc([C@@H]3[C@@H](CC[C@H](O)c4ccc(F)cc4)C(=O)N3c3ccc(C#CCNS(C)(=O)=O)cc3)cc2)[C@H](O)[C@@H](O)[C@@H]1O [PS, 4-[(2S,3R)-3-[(3S)-3-(4-fluorophenyl)-3-hydroxypropyl]-1-(4-{3-[(methylsulfonyl)amino]prop-1-yn-1-yl}phenyl)-4-oxoazetidin-2-yl]phenyl methyl-β-D-glucopyranosiduronate] | 7 | almost completely blocked | 10.3 ± 1.5
3 | O=C(O)[C@H]1O[C@@H](Oc2ccc([C@@H]3[C@@H](CC[C@H](O)c4ccc(F)cc4)C(=O)N3c3ccc(F)cc3)cc2)[C@H](O)[C@@H](O)[C@@H]1O [EZE-gluc, ezetimibe glucuronide] | 300 | – | –
